Columns and labels:
[1] = Loading of emulsions with xenon (xenon uptake, stability); type: physicochemical; settings: 10% by weight fatty emulsion saturated with xenon
Method: The loading capacity of the abovementioned perfluorocarbon preparation is considerable. Xenon loads of e.g. 1 to 10 ml/ml have been achieved by the simplest means. For example, these preparations can be loaded with inert gas simply by having the gas passed through them.
Thus, even by the simplest means, xenon can be dissolved or dispersed in concentrations of 0.2 to 10 ml or more per ml of fatty emulsion (concentrations relate to standard conditions, i.e. 20° C. and normal pressure). The xenon concentration depends on a large number of factors, especially the concentration of the fat. As a rule the preparations will be “loaded” with xenon up to the saturation limit. However, it is also possible for very small concentrations to be present, provided, for example, that a pharmacological activity can still be observed on intravenous administration. In the case of a 10% fatty emulsion, it is easily possible to reach xenon concentrations of 0.3 to 2 ml of xenon per ml of fatty emulsion. It is of course also possible to reach higher values, e.g. 3, 4, 5, 6 or 7 ml of xenon per ml of fatty emulsion. These fatty emulsions are sufficiently stable, at least in gas-tight containers, for the xenon not to be released as a gas over conventional storage periods. […]

patient = assay: Intravenous infusion of xenon-containing emulsion in a patient; settings: in vivo
Method: To achieve a subanaesthetic action, the xenon load in the medicinal preparation need only be about 0.2 to 0.3 ml of xenon per ml of emulsion. This means that an analgesic and/or sedative action is assured for preparations with a xenon content of at least 0.2 ml/ml emulsion. An anti-inflammatory action is already observed at 0.1 ml/ml emulsion. […] When working with a highly laden perfluorocarbon emulsion containing 2 to 4 ml of xenon per ml of emulsion, for example, 20 ml of this emulsion are infused over 30 sec, for example, in order to induce anaesthesia. An infusion rate of at least 7.5 ml/min is sufficient to maintain the anaesthesia. A total of 470 ml of emulsion would thus be used for a 1-hour operation. With a xenon content of 3 ml of xenon per ml of emulsion, this corresponds to a xenon volume of 1410 ml, i.e. a fraction of the xenon consumed in inhalation anaesthesia (based on a body weight of 85 kg, this would be a consumption of 16.6 ml per kg in one hour).

[Xe] [xenon, Xenon]
Xenon content at saturation [1]: about 0.3 ml of xenon per ml of emulsion
Xenon content at which an anti-inflammatory action is observed (patient): 0.1 ml/ml emulsion
Xenon content that assures an analgesic and/or sedative action (patient): at least 0.2 ml/ml emulsion

— patent publication US6511453B2, “Device for controlled anaesthesia, analgesia and/or sedation” (priority 1997, dated 2003)
